Source: paper PMC7413254 (Nature Communications, 2020)

Legend:
Assay in all cases: cell-based
Type in all cases: cell-based
PfCRT^3D7 [1] = molecular target: T1, PfCRT^3D7 (Plasmodium falciparum, UniProt Q8IBZ9); details: total [3H]CQ transport; for Uptake of [3H]CQ (% PfCRT3D7 control), cis-inhibition: PfCRT3D7 oocytes, normalised to the oocyte type control; for Uptake of [3H]CQ (% PfCRTDd2 control), cis-inhibition, PfCRT3D7: mean ± SEM, SEM
Outline: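 Oocytes expressing PfCRT isoforms, or non-expressing controls, were incubated 1.5 h at 27.5 °C in ND96 buffer pH 5.5 (96 mM NaCl, 2 mM KCl, 1 mM MgCl2, 1.8 mM CaCl2, 10 mM MES, 10 mM Tris-base), measuring uptake from acidic medium into cytosol. Oocytes were washed ice-cold, SDS-lysed and counted by scintillation.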

PfCRT^Ecu1110 = PfCRT^Ecu1110 (Plasmodium falciparum, UniProt Q9N623, A220S/I356L/K76T/N326D); details: for Uptake of [3H]CQ (% PfCRTEcu1110 control), trans-stimulation / PfCRT-mediated [3H]CQ transport, trans-stimulation (% PfCRTEcu1110 control): PfCRTEcu1110 oocytes; for Uptake of [3H]CQ (% PfCRTEcu1110 control), trans-stimulation / Uptake of [3H]CQ (% PfCRTDd2 control), trans-stimulation, PfCRTEcu1110: total [3H]CQ transport; for Uptake of [3H]CQ (% PfCRTEcu1110 control), trans-stimulation: normalised to the oocyte type control; for PfCRT-mediated [3H]CQ transport, trans-stimulation (% PfCRTEcu1110 control): normalised to oocyte type control; for Uptake of [3H]CQ (% PfCRTDd2 control), trans-stimulation, PfCRTEcu1110 / [3H]CQ transport (% PfCRTDd2 control), trans-stimulation, PfCRTEcu1110: mean ± SEM, SEM; for [3H]CQ transport (% PfCRTDd2 control), trans-stimulation, PfCRTEcu1110: PfCRT-mediated component (background subtracted), sheet title says normalised to PfCRTDd2 control
Outline: (§1)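 Transport measured in Xenopus oocytes expressing the transporters, 1.5 h at 27.5 °C in ND96 pH 5.5 unless noted. For trans-stimulation, VF-6 injected in 25 nL ND96 at pH 5.0–7.0 or Na^+-free (choline) buffer; intracellular levels based on ~400 nL oocyte volume. Ten oocytes per treatment, ≥4 experiments.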

PfNT1 = molecular target: T2, PfNT1 (Plasmodium falciparum, UniProt Q8IDM6); details: total [3H]CQ transport; for Uptake of [3H]CQ (% PfNT1 control), trans-stimulation: PfNT1 oocytes, normalised to the oocyte type control; for Uptake of [3H]CQ (% PfCRTDd2 control), trans-stimulation, PfNT1: mean ± SEM, SEM
T2 construct: expressed in transfected cells; host or cells: Xenopus laevis oocytes (stage V-VI), cRNA-injected
Outline: as §1

PfCRT^Dd2 = PfCRT^Dd2 (Plasmodium falciparum, UniProt Q9N623, A220S/I356T/K76T/M74I/N326S/N75E/Q271E/R371I); details: for Uptake of [3H]CQ (% PfCRTDd2 control), trans-stimulation / PfCRT-mediated [3H]CQ transport, trans-stimulation (% PfCRTDd2 control): PfCRTDd2 oocytes; for Uptake of [3H]CQ (% PfCRTDd2 control), trans-stimulation / Uptake of [3H]CQ (% PfCRTDd2 control), trans-stimulation, PfCRTDd2: total [3H]CQ transport; for Uptake of [3H]CQ (% PfCRTDd2 control), trans-stimulation: normalised to the oocyte type control; for PfCRT-mediated [3H]CQ transport, trans-stimulation (% PfCRTDd2 control): normalised to oocyte type control; for Uptake of [3H]CQ (% PfCRTDd2 control), trans-stimulation, PfCRTDd2 / [3H]CQ transport (% PfCRTDd2 control), trans-stimulation, PfCRTDd2: mean ± SEM, SEM; for [3H]CQ transport (% PfCRTDd2 control), trans-stimulation, PfCRTDd2: PfCRT-mediated component (background subtracted)
Outline: as §1

PfCRT^3D7 [2] = molecular target: T1, PfCRT^3D7; details: for Uptake of [3H]CQ (% PfCRT3D7 control), trans-stimulation / PfCRT-mediated [3H]CQ transport, trans-stimulation (% PfCRT3D7 control): PfCRT3D7 oocytes; for Uptake of [3H]CQ (% PfCRT3D7 control), trans-stimulation / Uptake of [3H]CQ (% PfCRTDd2 control), trans-stimulation, PfCRT3D7: total [3H]CQ transport; for Uptake of [3H]CQ (% PfCRT3D7 control), trans-stimulation: normalised to the oocyte type control; for PfCRT-mediated [3H]CQ transport, trans-stimulation (% PfCRT3D7 control): normalised to oocyte type control; for Uptake of [3H]CQ (% PfCRTDd2 control), trans-stimulation, PfCRT3D7: mean ± SEM, SEM
Outline: as §1

[3] = [test solute]i = 45 mM (30 mM for some solutes due to solubility)
[4] = [test solute]i = 5 mM (intracellular)
[5] = [test solute]i = 45 mM (intracellular; 30 mM for some solutes due to solubility)
[6] = [test solute]i = 5 mM (injected)

T2 sequence (Q8IDM6 whole entry): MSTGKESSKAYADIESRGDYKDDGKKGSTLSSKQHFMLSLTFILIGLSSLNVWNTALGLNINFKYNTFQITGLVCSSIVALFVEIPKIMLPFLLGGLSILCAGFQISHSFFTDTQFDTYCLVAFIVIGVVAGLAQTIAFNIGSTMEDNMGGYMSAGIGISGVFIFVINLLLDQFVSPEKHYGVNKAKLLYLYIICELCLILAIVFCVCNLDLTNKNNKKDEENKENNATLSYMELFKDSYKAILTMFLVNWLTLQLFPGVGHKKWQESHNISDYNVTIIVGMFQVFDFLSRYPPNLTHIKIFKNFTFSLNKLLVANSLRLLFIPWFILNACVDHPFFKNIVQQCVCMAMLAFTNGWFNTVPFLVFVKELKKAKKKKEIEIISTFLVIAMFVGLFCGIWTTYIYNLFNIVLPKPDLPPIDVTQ
Sequence of PfCRT^Dd2 (Q9N623 whole entry A220S/I356T/K76T/M74I/N326S/N75E/Q271E/R371I): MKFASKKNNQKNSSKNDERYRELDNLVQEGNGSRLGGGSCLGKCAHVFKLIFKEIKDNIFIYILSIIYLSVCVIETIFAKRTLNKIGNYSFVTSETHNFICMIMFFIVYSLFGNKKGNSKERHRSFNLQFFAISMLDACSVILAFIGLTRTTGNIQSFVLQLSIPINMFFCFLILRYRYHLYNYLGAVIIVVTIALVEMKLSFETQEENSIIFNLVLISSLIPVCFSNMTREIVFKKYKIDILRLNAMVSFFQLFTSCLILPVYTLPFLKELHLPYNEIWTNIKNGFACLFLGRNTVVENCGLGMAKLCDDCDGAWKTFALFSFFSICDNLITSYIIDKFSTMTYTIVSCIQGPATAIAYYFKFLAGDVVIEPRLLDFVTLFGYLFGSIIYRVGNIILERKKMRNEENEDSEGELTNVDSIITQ
Sequence of PfCRT^Ecu1110 (Q9N623 whole entry A220S/I356L/K76T/N326D): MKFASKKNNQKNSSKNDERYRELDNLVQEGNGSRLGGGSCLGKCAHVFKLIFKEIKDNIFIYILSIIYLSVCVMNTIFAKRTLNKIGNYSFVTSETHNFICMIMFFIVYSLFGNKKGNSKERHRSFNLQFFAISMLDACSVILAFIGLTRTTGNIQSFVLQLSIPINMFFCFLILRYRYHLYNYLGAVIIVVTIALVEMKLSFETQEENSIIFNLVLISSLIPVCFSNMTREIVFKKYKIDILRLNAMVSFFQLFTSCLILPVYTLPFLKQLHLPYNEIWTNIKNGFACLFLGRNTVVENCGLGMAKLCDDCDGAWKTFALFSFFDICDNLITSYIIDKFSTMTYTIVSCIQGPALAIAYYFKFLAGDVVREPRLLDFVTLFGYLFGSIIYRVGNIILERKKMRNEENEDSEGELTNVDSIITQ
T1 sequence (Q8IBZ9 59-398): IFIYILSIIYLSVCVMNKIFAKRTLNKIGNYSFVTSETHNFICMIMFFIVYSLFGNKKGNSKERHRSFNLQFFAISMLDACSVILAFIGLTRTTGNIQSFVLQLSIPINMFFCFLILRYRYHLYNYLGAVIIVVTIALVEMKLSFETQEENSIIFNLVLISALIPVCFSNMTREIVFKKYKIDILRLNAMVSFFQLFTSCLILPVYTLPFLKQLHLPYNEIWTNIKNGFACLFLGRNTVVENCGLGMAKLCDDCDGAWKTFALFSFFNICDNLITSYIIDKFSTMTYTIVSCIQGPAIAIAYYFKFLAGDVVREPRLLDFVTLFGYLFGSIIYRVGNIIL

Question: How did the “Uptake of [3H]CQ (% PfCRT3D7 control), cis-inhibition” value (PfCRT^3D7 [1]; [test solute] = 0.5 mM) turn out when NC(=O)C[C@H](N)C(=O)O [L-asparagine] was run?
Answer: Its value is 98 ± 2.4 % PfCRT3D7 control.

Question: What about the “Uptake of [3H]CQ (% PfCRT3D7 control), cis-inhibition” value (PfCRT^3D7 [1]; [test solute] = 1 mM) of the same compound?
Answer: The value was 98 ± 3.5 % PfCRT3D7 control.

Question: What about the “Uptake of [3H]CQ (% PfCRT3D7 control), cis-inhibition” value (PfCRT^3D7 [1]; [test solute] = 2 mM) of the same compound?
Answer: The value was 101 ± 4.7 % PfCRT3D7 control.

Question: And the “Uptake of [3H]CQ (% PfCRTDd2 control), cis-inhibition, PfCRT3D7” value (PfCRT^3D7 [1]; [test solute] = 0.5 mM)?
Answer: The value was 2.6 ± 0.04 % PfCRTDd2 control.

Question: What about the “Uptake of [3H]CQ (% PfCRTDd2 control), cis-inhibition, PfCRT3D7” value (PfCRT^3D7 [1]; [test solute] = 1 mM) of the same compound?
Answer: The value was 2.2 ± 0.03 % PfCRTDd2 control.

Question: And the “Uptake of [3H]CQ (% PfCRTDd2 control), cis-inhibition, PfCRT3D7” value (PfCRT^3D7 [1]; [test solute] = 2 mM)?
Answer: The value was 3.4 ± 0.07 % PfCRTDd2 control.

Question: And the “Uptake of [3H]CQ (% PfCRTEcu1110 control), trans-stimulation” value (PfCRT^Ecu1110; [test solute]i = 5 mM)?
Answer: The value was 98 ± 4.1 % PfCRTEcu1110 control.

Question: And the “Uptake of [3H]CQ (% PfCRTEcu1110 control), trans-stimulation” value (PfCRT^Ecu1110; [3])?
Answer: Its value is 98 ± 3.2 % PfCRTEcu1110 control.

Question: And the “PfCRT-mediated [3H]CQ transport, trans-stimulation (% PfCRTEcu1110 control)” value (PfCRT^Ecu1110; [4])?
Answer: Its value is 96 ± 2.1 % PfCRTEcu1110 control.

Question: What about the “PfCRT-mediated [3H]CQ transport, trans-stimulation (% PfCRTEcu1110 control)” value (PfCRT^Ecu1110; [5]) of the same compound?
Answer: The value was 96 ± 2.7 % PfCRTEcu1110 control.

Question: And the “Uptake of [3H]CQ (% PfCRTDd2 control), trans-stimulation, PfCRTEcu1110” value (PfCRT^Ecu1110; [4])?
Answer: The value was 35 ± 1.8 % PfCRTDd2 control.

Question: What about the “Uptake of [3H]CQ (% PfCRTDd2 control), trans-stimulation, PfCRTEcu1110” value (PfCRT^Ecu1110; [5]) of the same compound?
Answer: The value was 35 ± 2.1 % PfCRTDd2 control.

Question: What about the “[3H]CQ transport (% PfCRTDd2 control), trans-stimulation, PfCRTEcu1110” value (PfCRT^Ecu1110; [6]) of the same compound?
Answer: Its value is 32 ± 1.6 % PfCRTEcu1110 control.

Question: What about the “[3H]CQ transport (% PfCRTDd2 control), trans-stimulation, PfCRTEcu1110” value (PfCRT^Ecu1110; [3]) of the same compound?
Answer: The value was 32 ± 2.1 % PfCRTEcu1110 control.

Question: What about the “Uptake of [3H]CQ (% PfNT1 control), trans-stimulation” value (PfNT1; [test solute]i = 5 mM) of the same compound?
Answer: Its value is 100 ± 2.5 % PfNT1 control.

Question: And the “Uptake of [3H]CQ (% PfNT1 control), trans-stimulation” value (PfNT1; [3])?
Answer: The value was 99 ± 3.6 % PfNT1 control.

Question: What about the “Uptake of [3H]CQ (% PfCRTDd2 control), trans-stimulation, PfNT1” value (PfNT1; [4]) of the same compound?
Answer: The value was 2.8 ± 0.04 % PfCRTDd2 control.

Question: And the “Uptake of [3H]CQ (% PfCRTDd2 control), trans-stimulation, PfNT1” value (PfNT1; [5])?
Answer: Its value is 3.1 ± 0.06 % PfCRTDd2 control.

Question: And the “Uptake of [3H]CQ (% PfCRTDd2 control), trans-stimulation” value (PfCRT^Dd2; [test solute]i = 5 mM)?
Answer: The value was 101 ± 3.1 % PfCRTDd2 control.

Question: What about the “Uptake of [3H]CQ (% PfCRTDd2 control), trans-stimulation” value (PfCRT^Dd2; [3]) of the same compound?
Answer: Its value is 98 ± 2.4 % PfCRTDd2 control.

Question: And the “PfCRT-mediated [3H]CQ transport, trans-stimulation (% PfCRTDd2 control)” value (PfCRT^Dd2; [4])?
Answer: The value was 99 ± 2.4 % PfCRTDd2 control.

Question: What about the “PfCRT-mediated [3H]CQ transport, trans-stimulation (% PfCRTDd2 control)” value (PfCRT^Dd2; [5]) of the same compound?
Answer: The value was 96 ± 3.2 % PfCRTDd2 control.

Question: What about the “Uptake of [3H]CQ (% PfCRTDd2 control), trans-stimulation, PfCRTDd2” value (PfCRT^Dd2; [4]) of the same compound?
Answer: Its value is 101 ± 3.1 % PfCRTDd2 control.

Question: What about the “Uptake of [3H]CQ (% PfCRTDd2 control), trans-stimulation, PfCRTDd2” value (PfCRT^Dd2; [5]) of the same compound?
Answer: The value was 98 ± 2.4 % PfCRTDd2 control.

Question: And the “[3H]CQ transport (% PfCRTDd2 control), trans-stimulation, PfCRTDd2” value (PfCRT^Dd2; [6])?
Answer: The value was 99 ± 2.4 % PfCRTDd2 control.

Question: What about the “[3H]CQ transport (% PfCRTDd2 control), trans-stimulation, PfCRTDd2” value (PfCRT^Dd2; [3]) of the same compound?
Answer: Its value is 96 ± 3.2 % PfCRTDd2 control.

Question: And the “Uptake of [3H]CQ (% PfCRT3D7 control), trans-stimulation” value (PfCRT^3D7 [2]; [test solute]i = 5 mM)?
Answer: The value was 100 ± 4.2 % PfCRT3D7 control.

Question: What about the “Uptake of [3H]CQ (% PfCRT3D7 control), trans-stimulation” value (PfCRT^3D7 [2]; [3]) of the same compound?
Answer: The value was 100 ± 3.7 % PfCRT3D7 control.

Question: And the “PfCRT-mediated [3H]CQ transport, trans-stimulation (% PfCRT3D7 control)” value (PfCRT^3D7 [2]; [4])?
Answer: Its value is 98 ± 3.6 % PfCRT3D7 control.

Question: What about the “PfCRT-mediated [3H]CQ transport, trans-stimulation (% PfCRT3D7 control)” value (PfCRT^3D7 [2]; [5]) of the same compound?
Answer: Its value is 98 ± 2.8 % PfCRT3D7 control.

Question: What about the “Uptake of [3H]CQ (% PfCRTDd2 control), trans-stimulation, PfCRT3D7” value (PfCRT^3D7 [2]; [4]) of the same compound?
Answer: Its value is 3.3 ± 0.01 % PfCRTDd2 control.

Question: And the “Uptake of [3H]CQ (% PfCRTDd2 control), trans-stimulation, PfCRT3D7” value (PfCRT^3D7 [2]; [5])?
Answer: The value was 3.3 ± 0.04 % PfCRTDd2 control.
